Measured values taken from US8022103B2, “Ester prodrugs of prostratin and related phorbol compounds” (Salvia Sciences, Inc., priority 2005, dated 2011).
Values after ≈ are worked out from the molar mass of the structure shown. Like-named read-outs stand apart in the source and are kept apart here.

Assays:
Human PBMCs = assay: MTS staining for PBMC viability (cytotoxicity); type: cell-based; conditions: for Cytotoxicity: at the concentrations evaluated
Method: PMBC assay. For the standard PBMC assay, PHA-P stimulated cells from at least two normal donors were pooled (mixed together), diluted in fresh medium to a final concentration of 1×10^6 cells/mL, and plated in the interior wells of a 96 well round bottom microplate at 50 μL/well (5×10^4 cells/well) in a standard format developed by the Infectious Disease Research department of Southern Research Institute. Pooling (mixing) of mononuclear cells from more than one donor is used to minimize the variability observed between individual donors, which results from quantitative and qualitative differences in HIV infection and overall response to the PHA and IL-2 of primary lymphocyte populations. Each plate contains virus/cell control wells (cells plus virus), experimental wells (drug plus cells plus virus) and compound control wells ([…], necessary for MTS monitoring of cytotoxicity). Since HIV-1 is not cytopathic to PBMCs, this allows the use of the same assay plate for both antiviral activity and cytotoxicity measurements. Test drug dilutions were prepared at a 2× concentration in microtiter tubes and 100 μL of each concentration was placed in appropriate wells using the standard format. 50 μL of a predetermined dilution of virus stock was placed in each test well (final MOI˜0.1). The PBMC cultures were maintained for seven days following infection at 37° C., 5% CO2. After this period, cell-free supernatant samples were collected for analysis of reverse transcriptase activity and/or HIV p24 content. Following removal of supernatant samples, compound cytotoxicity was measured by addition of MTS to the plates for determination of cell viability. Wells were also examined microscopically and any abnormalities were noted.
MTS staining for PBMC viability to measure cytotoxicity. At assay termination, assay plates were stained with the soluble tetrazolium-based dye MTS (CellTiter 96 Reagent, Promega) to determine cell viability and quantify compound toxicity. The mitochondrial enzymes of metabolically active cells metabolize MTS to yield a soluble formazan product. This allows the rapid quantitative analysis of cell viability and compound cytotoxicity. […] At termination of the assay, 20 μL of MTS reagent was added per well. The microtiter plates were then incubated 4 6 hrs at 37° C. The incubation intervals were chosen based on empirically determined times for optimal dye reduction. Adhesive plate sealers were used in place of the lids, the sealed plate was inverted several times to mix the soluble formazan product and the plate was read spectrophotometrically at 490/650 ηm with a Molecular Devices Vmax or SpectraMaxPlus plate reader.
Data analysis. Using an in-house computer program, IC50 (50%, inhibition of virus replication), IC90 (90%, inhibition of virus replication), IC95 (95%, inhibition of virus replication), TC50 (50% reduction in cell viability), TC90 (90% reduction in cell viability), TC95 (95% reduction in cell viability), and a therapeutic index (TI=TC50/IC50) were determined. AZT (nucleoside reverse transcriptase inhibitor) was used as a positive control antiviral compound.

HIV-1IIIB = assay: HIV-1 antiviral cytoprotection assay in CEM-SS cells; type: cell-based
Method: Antiviral efficacy of SA-101A and SA-101B compounds were evaluated in an HIV 1 antiviral cytoprotection assay using CEM-SS cells and the laboratory adapted HIV 1IIIB virus strain.
Compound preparation. Compounds SA-101A and SA-101B were prepared in powder form and solubilized in DMSO and stored at −20° C. AZT (Sigma), solubilized in sterile H2O, was used as a positive antiviral control and was stored at 4° C. The compounds were evaluated at a high test concentration of 500 μg/mL. AZT was run in parallel at a concentration of 500 nM.
Cell Preparation. CEM-SS cells were passaged in T-75 flasks prior to use in the antiviral assay. On the day preceding the assay, the cells were split 1:2 to assure they were in an exponential growth phase at the time of infection. Total cell and viability quantification was performed using a hemacytometer and trypan blue exclusion. Cell viability was greater than 95% for the cells to be utilized in the assay. […]
Virus Preparation. […] The virus was resuspended and diluted into tissue culture medium such that the amount of virus added to each well in a volume of 50 μl was the amount determined to give approximately 90% cell killing at 6 days post-infection.
MTS Staining for Cell Viability. At assay termination, the assay plates were stained with the soluble tetrazolium-based dye MTS (Cell Titer Reagent Promega) to determine cell viability and quantify compound toxicity. […]

SMILES | Cytotoxicity (Human PBMCs; 40% human AB serum) | TC50 (Human PBMCs; HIV-1Ba-L assay plate, 40% Human AB serum) | TC50 (Human PBMCs; HIV-1IIIB assay plate, 40% Human AB serum) | TC50 (Human PBMCs; SIVMac251 assay plate, 40% Human AB serum) | IC50 (HIV-1IIIB) | TC50 (Human PBMCs; HIV-1Ba-L assay plate) | TC50 (Human PBMCs; HIV-1IIIB assay plate) | TC50 (Human PBMCs; SIVMac251 assay plate) | Cytotoxicity (Human PBMCs) | IC50 (HIV-1IIIB; Human immunodeficiency virus 1, read-out: IC50)
CC(=O)OC12CC(C)C3(O)C(C=C(COC(=O)CCC(=O)O)CC4(O)C(=O)C(C)=CC43)C1C2(C)C (stereo not shown) [SA-101B, Prostratin Succinate] | no cytotoxicity | >1.00 µg/mL | >1.00 µg/mL | >1.00 µg/mL | did not achieve an IC50 value |  |  |  |  | 
CC(=O)O[C@@]12C[C@@H](C)[C@@]3(O)[C@@H](C=C(CO)C[C@]4(O)C(=O)C(C)=C[C@@H]34)[C@@H]1C2(C)C [SA-101A, 12-deoxyphorbol 13-acetate] |  |  |  |  |  | >1.00 µg/mL | >1.00 µg/mL | >1.00 µg/mL | no cytotoxicity | 0.086 µg/mL (≈ 0.22 µM)
